The values that follow come from US9617545B2, “Method for treating breast cancer by targeting breast cancer stem cell” (KYUNGPOOK NATIONAL UNIVERSITY INDUSTRY-ACADEMIC COOPERATION …, priority 2014, dated 2017).

Structures are written as SMILES.

This test has as its system MCF7 and MCF7/ADR cells. The test is described as follows: MTT assay: cell viability against doxorubicin. It counts as cell-based, human. Conditions: MCF7/ADR cells compared with MCF7 cells; doxorubicin 0, 1, 2, 10, 25 μM; 24, 48, 72 hours; FIG. 2A. As to the method:
A human breast cancer maternal cell line, MCF-7 (Korean Cell Line Bank), was continuously exposed to 1 μM of a drug, doxorubicin (Sigma). In this case, the maternal cell line was cultured in […] for at least one week to establish a breast cancer cell MCF7/ADR having induced drug resistance. Here, the cell culture was performed at 37° C. and 5% CO^2 in a DMEM medium (Hyclon, Logan, Utah) supplemented with 10% FBS and 1% penicillin.
To evaluate cytotoxicity of the anti-cancer agent (doxorubicin), a cell viability assay was performed using an MTT assay. First, cells were plated on a 96-well plate at a density of 5×10^3 cells/well, treated with the drug, and then cultured for 24, 48, and 72 hours. Thereafter, each well was treated with 5 mg/ml of MTT (AMRESCO), and the cells were cultured at 37° C. for 4 hours. Each well was treated with DMSO ([…]) to dissolve a formazan salt, and the amount of the formazan salt was determined by measuring an OD value at 540 nm using a microplate reader (Tecan Austria GmbH, Austria). […]
After 24, 48, and 72 hours when the MCF7 and MCF7/ADR cells were treated with doxorubicin (0, 1, 2, 10, and 25 μM), the cell viabilities were determined.

As to `COc1cccc2c1C(=O)c1c(O)c3c(c(O)c1C2=O)C[C@@](O)(C(=O)CO)C[C@@H]3O[C@H]1C[C@H](N)[C@H](O)[C@H](C)O1` [doxorubicin], the “cell viability against doxorubicin” value is “higher cell viability”.
